Test results published in US5591714A, “Derivatives of A82846” (priority 1994, dated 1997).
≈ marks a conversion by molar mass, not a printed value.

Legend:
[1] = test system: Escherichia coli EC14; experiment: MIC, standard agar-dilution assay; type: cell-based
Experimental: (§1) The formula I compounds have in vitro and in vivo activity against Gram-positive pathogenic bacteria. The MIC's were determined using a standard agar-dilution assays.

[2] = test system: Escherichia coli N10; experiment: MIC, standard agar-dilution assay; type: cell-based
Experimental: as §1

[3] = test system: Escherichia coli TEM; experiment: MIC, standard agar-dilution assay; type: cell-based
Experimental: as §1

[4] = test system: Haemophilus influenzae 76; experiment: MIC, standard agar-dilution assay; type: cell-based
Experimental: as §1

[5] = test system: Haemophilus influenzae C.L.; experiment: MIC, standard agar-dilution assay; type: cell-based
Experimental: as §1

[6] = test system: Klebsiella pneumoniae KAE; experiment: MIC, standard agar-dilution assay; type: cell-based
Experimental: as §1

[7] = test system: Klebsiella pneumoniae X26; experiment: MIC, standard agar-dilution assay; type: cell-based
Experimental: as §1

[8] = test system: Klebsiella pneumoniae X68; experiment: MIC, standard agar-dilution assay; type: cell-based
Experimental: as §1

[9] = test system: Staphylococcus aureus NRRL X1.1; experiment: MIC, standard agar-dilution assay; type: cell-based
Experimental: as §1

[10] = test system: Staphylococcus aureus V41; experiment: MIC, standard agar-dilution assay; type: cell-based
Experimental: as §1

[11] = test system: Staphylococcus aureus X400; experiment: MIC, standard agar-dilution assay; type: cell-based
Experimental: as §1

[12] = test system: Staphylococcus epidermidis 222; experiment: MIC, standard agar-dilution assay; type: cell-based
Experimental: as §1

[13] = test system: Staphylococcus epidermidis EPI270; experiment: MIC, standard agar-dilution assay; type: cell-based
Experimental: as §1

[14] = test system: Streptococcus pyogenes C203; experiment: MIC, standard agar-dilution assay; type: cell-based
Experimental: as §1

[15] = test system: Staphylococcus aureus S13E; type: cell-based
Experimental: as §1

[16] = test system: Streptococcus pneumoniae Park 1; type: cell-based
Experimental: as §1

[17] = test system: Enterococcus faecium X66; experiment: MIC, standard agar-dilution assay; type: cell-based
Experimental: as §1
^b Formerly Streptococcus faecium X66

[18] = test system: Enterococcus faecalis 2041; experiment: MIC, standard agar-dilution assay; type: cell-based
Experimental: as §1
^c Formerly Streptococcus faecalis 2041

[19] = test system: Staphylococcus aureus; experiment: In vivo activity, experimentally infected mice (ED50); details: Staphylococcus aureus infection; doses administered subcutaneously to mice 1 and 4 hours postinfection
[20] = test system: Streptococcus pyogenes; experiment: as above; details: Streptococcus pyogenes infection; doses administered subcutaneously to mice 1 and 4 hours postinfection
[21] = test system: Streptococcus pneumoniae; experiment: as above; details: Streptococcus pneumoniae infection; doses administered subcutaneously to mice 1 and 4 hours postinfection

SMILES	MIC [1] [µg/mL]	MIC [2] [µg/mL]	MIC [3] [µg/mL]	MIC [4] [µg/mL]	MIC [5] [µg/mL]	MIC [6] [µg/mL]	MIC [7] [µg/mL]	MIC [8] [µg/mL]	MIC [9]	MIC [10]	MIC [11] [µg/mL]	MIC [12]	MIC [13]	MIC [14]	MIC [15]	MIC [16]	MIC [17]	MIC [18]	ED50 [19] [mg/kg/2]	ED50 [20] [mg/kg/2]	other results
CN[C@H](CC(C)C)C(=O)N[C@H]1C(=O)N[C@@H](CC(N)=O)C(=O)N[C@H]2C(=O)N[C@H]3C(=O)N[C@H](C(=O)N[C@H](C(=O)O)c4cc(O)cc(O)c4-c4cc3ccc4O)[C@H](O[C@H]3C[C@](C)(N)[C@@H](O)[C@H](C)O3)c3ccc(cc3)Oc3cc2cc(c3O[C@@H]2O[C@H](CO)[C@@H](O)[C@H](O)[C@H]2O[C@H]2C[C@](C)(NCCc3ccccc3)[C@@H](O)[C@H](C)O2)Oc2ccc(cc2Cl)[C@H]1O [Compound 24]	> 128	> 128	> 128	> 128	> 128	> 128	> 128	> 128	.5 µg/mL (≈ 0.301 µM)	.5 µg/mL (≈ 0.301 µM)	1 (≈ 0.602 µM)	.5 µg/mL (≈ 0.301 µM)	.5 µg/mL (≈ 0.301 µM)	.25 µg/mL (≈ 0.15 µM)	1 µg/mL (≈ 0.602 µM)	.25 µg/mL (≈ 0.15 µM)	.5 µg/mL (≈ 0.301 µM)	.5 µg/mL (≈ 0.301 µM)	0.72	0.09	ED50 [21]: 0.25 mg/kg/2
CCCCCCC(=O)N[C@@]1(C)C[C@H](O[C@H]2[C@H](Oc3c4cc5cc3Oc3ccc(cc3Cl)[C@@H](O)[C@@H](NC(=O)[C@@H](CC(C)C)NC)C(=O)N[C@@H](CC(N)=O)C(=O)N[C@H]5C(=O)N[C@H]3C(=O)N[C@H](C(=O)N[C@H](C(=O)O)c5cc(O)cc(O)c5-c5cc3ccc5O)[C@H](O[C@H]3C[C@](C)(N)[C@@H](O)[C@H](C)O3)c3ccc(cc3)O4)O[C@H](CO)[C@@H](O)[C@@H]2O)O[C@@H](C)[C@@H]1O [Compound 27]	> 128	> 128	> 128	> 128	> 128	> 128	> 128	> 128	1 µg/mL (≈ 0.599 µM)	1 µg/mL (≈ 0.599 µM)	1 (≈ 0.599 µM)	2 µg/mL (≈ 1.2 µM)	2 µg/mL (≈ 1.2 µM)	.5 µg/mL (≈ 0.299 µM)	2 µg/mL (≈ 1.2 µM)	.25 µg/mL (≈ 0.15 µM)	2 µg/mL (≈ 1.2 µM)	2 µg/mL (≈ 1.2 µM)	> 1.0	0.5	ED50 [21]: 0.71 mg/kg/2
CCCCCN[C@@]1(C)C[C@H](O[C@H]2[C@H](Oc3c4cc5cc3Oc3ccc(cc3Cl)[C@@H](O[C@H]3C[C@](C)(N)[C@@H](O)[C@H](C)O3)[C@@H]3NC(=O)[C@H](NC(=O)[C@@H]5NC(=O)[C@H](CC(N)=O)NC(=O)[C@H](NC(=O)[C@@H](CC(C)C)NC)[C@H](O)c5ccc(c(Cl)c5)O4)c4ccc(O)c(c4)-c4c(O)cc(O)cc4[C@@H](C(=O)O)NC3=O)O[C@H](CO)[C@@H](O)[C@@H]2O)O[C@@H](C)[C@@H]1O [Compound 34]	> 128	> 128	> 128	> 128	> 128	> 128	> 128	> 128	.5 µg/mL (≈ 0.301 µM)	.5 µg/mL (≈ 0.301 µM)	1 (≈ 0.601 µM)	.5 µg/mL (≈ 0.301 µM)	2 µg/mL (≈ 1.2 µM)	.5 µg/mL (≈ 0.301 µM)	.5 µg/mL (≈ 0.301 µM)	.5 µg/mL (≈ 0.301 µM)	.5 µg/mL (≈ 0.301 µM)	1 µg/mL (≈ 0.601 µM)	0.77	0.44	ED50 [21]: 0.44 mg/kg/2
